The supplement of paper PMC8149375

How the values were obtained:
Settings in all cases: treatment: drug alone; 5 days
ACHN [1] = assay: GI50, drug alone; higher = less potent
Experimental: (§1)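 Primary HTS: 8 RCC cell lines treated with 8 doses (up to 10 uM) of each library drug alone for 5 days; viability read by CellTiter-Glo and normalised to DMSO. GI50 was fitted with XLfit (4-parameter), AUC is the area under the dose-response curve, and minimum viability is the lowest fraction of DMSO viability across doses.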

A498 [2] = assay: GI50, drug alone; higher = less potent
Experimental: as §1

786-O [3] = assay: GI50, drug alone; higher = less potent
Experimental: as §1

769-P [4] = assay: GI50, drug alone; higher = less potent
Experimental: as §1

CAKI-1 [5] = assay: GI50, drug alone; higher = less potent
Experimental: as §1

UO-31 [6] = assay: GI50, drug alone; higher = less potent
Experimental: as §1

SN12C [7] = assay: GI50, drug alone; higher = less potent
Experimental: as §1

TK-10 [8] = assay: GI50, drug alone; higher = less potent
Experimental: as §1

ACHN [9] = assay: AUC of dose-response viability curve, drug alone (arbitrary (AUC of normalised viability)); higher = less growth inhibition
Experimental: as §1

A498 [10] = assay: as above
Experimental: as §1

786-O [11] = assay: as above
Experimental: as §1

769-P [12] = assay: as above
Experimental: as §1

CAKI-1 [13] = assay: as above
Experimental: as §1

UO-31 [14] = assay: as above
Experimental: as §1

SN12C [15] = assay: as above
Experimental: as §1

TK-10 [16] = assay: as above
Experimental: as §1

ACHN [17] = assay: minimum viability across doses, drug alone, relative to DMSO (fraction); higher = less growth inhibition
Experimental: as §1

A498 [18] = assay: as above
Experimental: as §1

786-O [19] = assay: as above
Experimental: as §1

769-P [20] = assay: as above
Experimental: as §1

CAKI-1 [21] = assay: as above
Experimental: as §1

UO-31 [22] = assay: as above
Experimental: as §1

SN12C [23] = assay: as above
Experimental: as §1

TK-10 [24] = assay: as above
Experimental: as §1

Compound | GI50, drug alone (ACHN [1]) | GI50, drug alone (A498 [2]) | GI50, drug alone (786-O [3]) | GI50, drug alone (769-P [4]) | GI50, drug alone (CAKI-1 [5]) | GI50, drug alone (UO-31 [6]) | GI50, drug alone (SN12C [7]) | GI50, drug alone (TK-10 [8]) | AUC of dose-response viability curve (ACHN [9]) | AUC of dose-response viability curve (A498 [10]) | AUC of dose-response viability curve (786-O [11]) | AUC of dose-response viability curve (769-P [12]) | AUC of dose-response viability curve (CAKI-1 [13]) | AUC of dose-response viability curve (UO-31 [14]) | AUC of dose-response viability curve (SN12C [15]) | AUC of dose-response viability curve (TK-10 [16]) | minimum viability across doses (ACHN [17]) | minimum viability across doses (A498 [18]) | minimum viability across doses (786-O [19]) | minimum viability across doses (769-P [20]) | minimum viability across doses (CAKI-1 [21]) | minimum viability across doses (UO-31 [22]) | minimum viability across doses (SN12C [23]) | minimum viability across doses (TK-10 [24])
CC(=O)Nc1ccc(NC(=S)NC(=O)c2ccc(C(C)(C)C)cc2)cc1 [Tenovin-1] | 9.84 µM | 0.978 µM | 0.17 µM | 0.818 µM | > 10 µM | 0.264 µM | > 10 µM | 5.19 µM | 2.75 | 2.77 | 1.52 | 2.48 | 2.96 | 2.6 | 3.15 | 2.63 | 0.515 | 0.0355 | 0.00113 | 0.0841 | 0.536 | 0.00581 | 0.762 | 0.412
O=C1CCC(N2C(=O)c3ccccc3C2=O)C(=O)N1 (configuration not stated) [Thalidomide] | > 10 µM | > 10 µM | 0.288 µM | > 10 µM | > 10 µM | > 10 µM | > 10 µM | > 10 µM | 3.18 | 4.19 | 2 | 3.56 | 3.56 | 4.89 | 3.37 | 3.12 | 0.802 | 1.05 | 0.0165 | 0.949 | 0.932 | 1.21 | 0.88 | 0.824
O=C(NCc1ccccc1)c1csc(Nc2ccncn2)n1 [Thiazovivin] | 7.22 µM | > 10 µM | > 10 µM | > 10 µM | > 10 µM | 4.49 µM | > 10 µM | > 10 µM | 3.15 | 3.9 | 2.69 | 3.01 | 3.17 | 3.55 | 3.58 | 3.36 | 0.369 | 0.891 | 0.526 | 0.717 | 0.609 | 0.279 | 0.804 | 0.69
O=c1sn(-c2cccc3ccccc23)c(=O)n1Cc1ccccc1 [Tideglusib] | > 10 µM | > 10 µM | 0.0203 µM | > 10 µM | > 10 µM | > 10 µM | > 10 µM | > 10 µM | 3.19 | 3.82 | 2.12 | 3.48 | 3.54 | 4.53 | 3.28 | 2.95 | 0.822 | 0.979 | 0.485 | 0.948 | 0.941 | 1.14 | 0.871 | 0.736
COc1ccc2cc(-c3[nH]c(-c4ccc(S(C)=O)cc4)nc3-c3ccncc3)ccc2c1 (configuration not stated) [Tie2 kinase inhibitor] | > 10 µM | > 10 µM | > 10 µM | > 10 µM | > 10 µM | > 10 µM | > 10 µM | > 10 µM | 3.08 | 4.67 | 3.15 | 3.4 | 3.54 | 5.91 | 3.4 | 3.35 | 0.762 | 1.08 | 0.52 | 0.951 | 0.864 | 1.2 | 0.755 | 0.799
COc1cc2nccc(Oc3ccc(NC(=O)Nc4cc(C)on4)c(Cl)c3)c2cc1OC [Tivozanib (AV-951)] | 6.95 µM | > 10 µM | > 10 µM | > 10 µM | 2.02 µM | 0.301 µM | 9.39 µM | > 10 µM | 3.21 | 4.88 | 3.89 | 3.47 | 2.12 | 2.98 | 3.26 | 3.14 | 0.352 | 1.12 | 0.904 | 0.849 | 0.0726 | 0.00837 | 0.417 | 0.641
CCC(=O)N1CCN(c2ccc(-n3c(=O)ccc4cnc5ccc(-c6cnc7ccccc7c6)cc5c43)cc2C(F)(F)F)CC1 [Torin 1] | 0.0331 µM | 0.0888 µM | 0.0551 µM | 0.0719 µM | 0.057 µM | 0.0767 µM | 0.0872 µM | > 10 µM | 1.13 | 1.81 | 1.39 | 1.54 | 1.32 | 1.71 | 1.56 | 1.33 | 0.0432 | 0.0183 | 0.0473 | 0.101 | 0.0409 | 0.00725 | 0.127 | 0.116
CC(C)(C)c1cc(/C=C(\C#N)C(N)=S)cc(C(C)(C)C)c1O [Tyrphostin AG 879 (AG 879)] | > 10 µM | > 10 µM | < 0.003 µM | > 10 µM | > 10 µM | > 10 µM | > 10 µM | > 10 µM | 3.12 | 4.17 | 1.6 | 3.56 | 3.62 | 5.27 | 3.11 | 2.95 | 0.78 | 1.02 | 0.257 | 0.91 | 0.712 | 1.28 | 0.787 | 0.748
CCO.N#CC(=C(/N)Sc1ccccc1N)/C(C#N)=C(\N)Sc1ccccc1N [U0126-EtOH] | > 10 µM | > 10 µM | > 10 µM | > 10 µM | > 10 µM | > 10 µM | > 10 µM | > 10 µM | 3.17 | 3.94 | 2.86 | 3.3 | 3.35 | 4 | 3.49 | 2.95 | 0.646 | 0.913 | 0.576 | 0.806 | 0.564 | 0.943 | 0.901 | 0.656
Cc1cc(Nc2cc(N3CCN(C)CC3)nc(Sc3ccc(NC(=O)C4CC4)cc3)n2)n[nH]1 [VX-680 (MK-0457, Tozasertib)] | 0.725 µM | 3.2 µM | 0.159 µM | 2.93 µM | 1.25 µM | > 10 µM | 1.48 µM | > 10 µM | 2.35 | 3.1 | 1.85 | 2.67 | 2.54 | 3.24 | 2.57 | 2.96 | 0.214 | 0.254 | 0.133 | 0.386 | 0.241 | 0.577 | 0.2 | 0.548
NC(=O)c1ccc(N(C(N)=O)c2c(F)cccc2F)nc1-c1ccc(F)cc1F [VX-702] | > 10 µM | > 10 µM | > 10 µM | > 10 µM | > 10 µM | > 10 µM | > 10 µM | > 10 µM | 3.03 | 3.72 | 2.9 | 3.44 | 3.27 | 3.75 | 3.56 | 2.79 | 0.656 | 0.924 | 0.661 | 0.946 | 0.76 | 0.806 | 0.944 | 0.674
COc1cc2c(Nc3ccc(Br)cc3F)ncnc2cc1OCC1CCN(C)CC1 [Vandetanib (Zactima)] | 1.57 µM | > 10 µM | > 10 µM | 5.26 µM | 5.12 µM | 9.07 µM | > 10 µM | 1.8 µM | 2.6 | 3.29 | 2.98 | 2.88 | 3.12 | 4.05 | 3.2 | 2.58 | 0.133 | 0.68 | 0.532 | 0.324 | 0.265 | 0.162 | 0.507 | 0.166
Cl.Cl.Clc1ccc(Nc2nnc(Cc3ccncc3)c3ccccc23)cc1 [Vatalanib dihydrochloride (PTK787)] | > 10 µM | > 10 µM | > 10 µM | > 10 µM | > 10 µM | > 10 µM | > 10 µM | > 10 µM | 2.59 | 4.65 | 3.3 | 3.69 | 3.48 | 4.41 | 3.4 | 3.41 | 0.587 | 0.933 | 0.692 | 1.01 | 0.807 | 1.11 | 0.901 | 0.887
CCCS(=O)(=O)Nc1ccc(F)c(C(=O)c2c[nH]c3ncc(-c4ccc(Cl)cc4)cc23)c1F [Vemurafenib (PLX4032)] | > 10 µM | > 10 µM | 5.39 µM | > 10 µM | > 10 µM | > 10 µM | > 10 µM | > 10 µM | 3.08 | 3.73 | 2.45 | 2.31 | 3.43 | 3.42 | 3.05 | 3.05 | 0.634 | 0.93 | 0.271 | 0.884 | 0.76 | 0.7 | 0.764 | 0.647
c1cncc(CN2CCC(n3ncc4c(N5CCOCC5)nc(-c5ccc6[nH]ccc6c5)nc43)CC2)c1 [WAY-600] | 0.689 µM | 5.84 µM | 0.372 µM | 2.04 µM | 0.624 µM | 1.15 µM | 1.9 µM | 0.744 µM | 2.32 | 4.54 | 1.79 | 2.73 | 2.23 | 3.04 | 2.51 | 2.23 | 0.0599 | 0.0996 | 0.00124 | 0.0444 | 0.0276 | 0.00348 | 0.164 | 0.0825
COc1cc2ncnc(Nc3ccc(O)c(Br)c3)c2cc1OC [WHI-P154] | 1.51 µM | > 10 µM | > 10 µM | > 10 µM | 6.6 µM | > 10 µM | > 10 µM | 2.48 µM | 2.49 | 5.3 | 3.09 | 3.27 | 3.22 | 6.61 | 3.48 | 2.33 | 0.27 | 0.955 | 0.594 | 0.553 | 0.351 | 1.1 | 0.789 | 0.435
C[C@H](NC(=O)/C(C#N)=C/c1cccc(Br)n1)c1ccccc1 [WP1066] | 6.7 µM | > 10 µM | 4.47 µM | 5.25 µM | 8.92 µM | 7.86 µM | > 10 µM | > 10 µM | 3.23 | 4.19 | 3.07 | 3.44 | 3.38 | 4.12 | 3.23 | 3.62 | 0.13 | 0.986 | 0.015 | 0.0246 | 0.371 | 0.00632 | 0.581 | 0.932
CCC[C@H](NC(=O)/C(C#N)=C/c1cccc(Br)n1)c1ccccc1 [WP1130] | 4.37 µM | 5.12 µM | 1.54 µM | 4.25 µM | 4.52 µM | 8.04 µM | 4.46 µM | 4.1 µM | 3.26 | 3.33 | 2.24 | 3.17 | 3.18 | 3.72 | 2.97 | 2.56 | 0.00429 | 0.0682 | 0.00591 | 0.0147 | 0.0261 | 0.0144 | 0.0172 | 0.0704
